The results in this text go back to ChEMBL document CHEMBL4387743, “Design, synthesis and structure activity relationships of indazole and indole derivatives as potent glucagon receptor antagonists” (Bioorg Med Chem Lett, 2019).

Series [1] addresses Glucagon receptor (Homo sapiens, UniProt P47871). Nature of the series: Antagonist activity at full length human recombinant GCGR transfected in HEK293 cells assessed as inhibition of glucagon-stimulated cAMP by LANCE assay. The series is classed as functional, cell-based. (Time-resolved FRET reads energy transfer from a long-lived donor to a nearby acceptor.)
Series [2] is described as follows: Clearance in C57 black mouse at 5 mg/kg, iv. The series is classed as ADME, organism-based. Particulars: in vivo.
The nature of series [3]: AUClast in C57 black mouse at 20 mg/kg, po. The series is classed as ADME, organism-based. Also on record: dose 20 mg/kg, time 0 - last, route oral. Particulars: in vivo.
Series [4] can be described thus: Elimination half life in C57 black mouse at 5 mg/kg, iv. The series is classed as ADME, organism-based. Particulars: in vivo, read-out: beta t1/2 (converted).
Series [5] is described as follows: Cmax in C57 black mouse at 20 mg/kg, po. The series is classed as ADME, organism-based. Details: dose 20 mg/kg, route oral. Particulars: in vivo.
Series [6] in a line: Volume of distribution at steady state in C57 black mouse at 5 mg/kg, iv. The series is classed as ADME, organism-based. As to conditions: in vivo, read-out: Vdss.
Series [7] in a line: Oral bioavailability in C57 black mouse at 20 mg/kg. The series is classed as ADME, organism-based. Particulars: in vivo.
The nature of series [8]: Elimination half life in C57 black mouse at 20 mg/kg, po. The series is classed as ADME, organism-based. As to conditions: in vivo, read-out: beta t1/2 (converted).
The nature of series [9]: Oral bioavailability in Sprague Dawley rat at 10 mg/kg. The series is classed as ADME, organism-based. As to conditions: in vivo.
Series [10] can be described thus: Clearance in Sprague Dawley rat at 2 mg/kg, iv. The series is classed as ADME, organism-based. Particulars: in vivo.
Series [11] in a line: Volume of distribution at steady state in Sprague Dawley rat at 2 mg/kg, iv. The series is classed as ADME, organism-based. Particulars: in vivo, read-out: Vdss.
Series [12] is described as follows: AUClast in Sprague Dawley rat at 10 mg/kg, po. The series is classed as ADME, organism-based. Also on record: dose 10 mg/kg, route oral, time 0 - last. As to conditions: in vivo.
Series [13] can be described thus: Elimination half life in Sprague Dawley rat at 2 mg/kg, iv. Particulars: in vivo, read-out: beta t1/2 (converted). The series is classed as ADME, organism-based.
Series [14] is described as follows: Elimination half life in Sprague Dawley rat at 10 mg/kg, po. The series is classed as ADME, organism-based. Particulars: in vivo, read-out: beta t1/2 (converted).
Series [15] can be described thus: Cmax in Sprague Dawley rat at 10 mg/kg, po. The series is classed as ADME, organism-based. Details: dose 10 mg/kg, route oral. As to conditions: in vivo.

pKi: −log10 of the molar value.

Sequence of Glucagon receptor (P47871 whole entry): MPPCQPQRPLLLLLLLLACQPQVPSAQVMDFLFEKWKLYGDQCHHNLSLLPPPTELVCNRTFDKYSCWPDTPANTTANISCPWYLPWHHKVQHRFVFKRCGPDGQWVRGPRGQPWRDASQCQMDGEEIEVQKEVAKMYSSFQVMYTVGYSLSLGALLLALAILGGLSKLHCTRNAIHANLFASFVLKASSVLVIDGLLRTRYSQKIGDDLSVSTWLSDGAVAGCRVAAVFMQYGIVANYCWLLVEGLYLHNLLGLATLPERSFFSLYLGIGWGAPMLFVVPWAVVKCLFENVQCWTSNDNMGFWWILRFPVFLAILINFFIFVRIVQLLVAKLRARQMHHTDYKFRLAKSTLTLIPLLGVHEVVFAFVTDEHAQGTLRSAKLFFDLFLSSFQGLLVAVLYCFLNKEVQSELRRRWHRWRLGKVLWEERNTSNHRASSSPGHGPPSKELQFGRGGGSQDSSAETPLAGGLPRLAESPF

`CC(C)CC(c1ccc(C(=O)NCCC(=O)O)cc1)n1ncc2cc(-c3ccc(N4CCN(C)CC4)cc3)ccc21` (racemic): the pKi (commonly the negative decadic logarithm of the Ki, by convention in mol/L) in [1] was 5.90.
With `Cc1cc(C(F)(F)F)ccc1-c1ccc2nn(C(CC(C)C)c3ccc(C(=O)NCCC(=O)O)cc3)cc2c1Cl` (racemic), the clearance (in general, the rate of elimination divided by the concentration) in series [2] worked out at 1.89 mL/min/kg. In addition, the exposure AUC(0-t) – broadly, the area under the concentration-time curve up to a stated or last time point – in series [3] came to 290 µM·h. The half-life in series [4] is 6.6 h. Moreover, the highest level in [5] (Cmax) was 18.5 µM. For the same molecule, the Vd in [6] worked out at 0.9 L/kg. Moreover, in [7], the bioavailability (as a rule, dose-corrected exposure relative to a reference, in per cent) amounted to 97.7%. In addition, the pKi in series [1] is 7.72.
Take `Cc1c(-c2ccc(C(F)(F)F)cc2Cl)ccc2nn(C(CC(C)C)c3ccc(C(=O)NCCC(=O)O)cc3)cc12` (racemic): the pKi in series [1] is 7.54.
As to `Cc1cc(C(F)(F)F)ccc1-c1ccc2c(ccn2C(CC(C)C)c2ccc(C(=O)NCCC(=O)O)cc2)c1` (racemic), the pKi in series [1] was 7.07.
For `CC(C)CC(c1ccc(C(=O)NCCC(=O)O)cc1)n1ncc2cc(-c3ccc(C(C)(C)C)cc3)ccc21` (racemic), the negative-log Ki (pKi) in series [1] is 6.90.
Regarding `Cc1cc(-c2ccc(C(C)(C)C)cc2)cc2cn(C(CC(C)C)c3ccc(C(=O)NCCC(=O)O)cc3)nc12` (racemic), the pKi in series [1] is 5.87.
Regarding `CC(C)CC(c1ccc(C(=O)NCCC(=O)O)cc1)n1ncc2cc(-c3ccc(N4CCOCC4)cc3)ccc21` (racemic), the pKi in [1] is 5.52.
Regarding `CC(C)CC(c1ccc(C(=O)NCCC(=O)O)cc1)n1ncc2cc(-c3ccc(C(F)(F)F)cc3)ccc21` (racemic), the pKi in series [1] was 6.59.
Take `CC(C)CC(c1ccc(C(=O)NCCC(=O)O)cc1)n1ncc2cc(-c3ccc(OC(F)(F)F)cc3)ccc21` (racemic): the pKi in [1] was 6.19 to 6.55.
As to `Cc1cc(C(F)(F)F)ccc1-c1cc2cnn(C(CC(C)C)c3ccc(C(=O)NCCC(=O)O)nc3)c2cc1C` (racemic), the half-life in series [8] was 4.8 h; in series [4] it was 5 h. The molecule also gave a clearance in series [2] of 4.83 mL/min/kg. Also, the AUC(0-t) in series [3] came out at 111 µM·h. Besides, the Cmax – broadly, the highest concentration seen after dosing – in [5] came to 11.1 µM. Also, the Vd in series [6] came to 1.85 L/kg. This molecule also gave a bioavailability in [7] of 94.7%.
Turning to `CC(C)CC(c1ccc(C(=O)NCCC(=O)O)cc1)n1ccc2cc(-c3ccc(C(C)(C)C)cc3)ccc21` (racemic), the pKi in [1] was 6.96.
For the molecule `CC(C)CC(c1ccc(C(=O)NCCC(=O)O)cc1)n1ncc2cc(-c3cc(Cl)cc(Cl)c3)ccc21` (racemic), the pKi in series [1] was 5.78.
In the case of `Cc1cc(-c2ccc(C(C)(C)C)cc2)cc2ccn(C(CC(C)C)c3ccc(C(=O)NCCC(=O)O)nc3)c12` (racemic), the pKi in [1] was less than 5.59.
Turning to `CC(C)CC(c1ccc(C(=O)NCCC(=O)O)cc1)n1ccc2cc(-c3ccc(C(F)(F)F)cc3)ccc21` (racemic), the half-life in series [8] was 3.9 h; in series [4], 3.7 h; in [13], 4.6 h; in series [14] it was 5.2 h. Besides, the bioavailability in series [9] came out at 51.7%; in series [7], 68.7%. The clearance in series [2] was found to be 3.77 mL/min/kg; in series [10] it was 12.2 mL/min/kg. The AUC(0-t) in [3] came out at 116 µM·h; in series [12], 14.3 µM·h. The Cmax was 8.1 µM in series [5] and 1.4 µM in series [15]. Besides, the Vd in series [6] worked out at 1.05 L/kg; in series [11], 3.65 L/kg. The pKi in series [1] is 6.94.
On to `Cc1cc(C(F)(F)F)ccc1-c1cc(F)c2c(ccn2C(CC(C)C)c2ccc(C(=O)NCCC(=O)O)cc2)c1C` (racemic), for which the pKi in series [1] was 6.15.
